Test results as given in ChEMBL document CHEMBL1201862, “PubChem BioAssay data set” (2004).
Activity calls are given as the source filed them.

How the values were obtained:
[1] = system: BJ; test: BJ-TERT fibroblast viability loss – cell-based, RAS-independent, luminescence, dose response (AID 1933); assay type: functional; details: Homo sapiens
[2] = system: BJ; test: cells; assay type: functional, cell-based; details: Homo sapiens
[3] = viability of PTEN-deleted HCT116 cells – cell-based, HCT116 PTEN knockout, dose response (AID 1047); assay type: functional;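 further: HCT116 colon tumor cells with PTEN knocked out; cells exposed to compound for 60 hours before readout; potency for loss of cell viability measured by luminescence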
[4] = viability of HCT116 lacking mutant beta-catenin – cell-based, human colon tumor, dose response (AID 1045); assay type: functional;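 further: HCT116 colon tumor cells with beta catenin knocked out; cells exposed to compound for 60 hours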
[5] = system: BJ; test: BJ-TERT-LT-ST fibroblast viability loss – cell-based, RAS-independent, luminescence, dose response (AID 1935); assay type: functional; details: Homo sapiens;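 further: BJ fibroblasts immortalized with TERT plus LT and ST oncogenes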
[6] = DRD fibroblast viability loss – cell-based, non-viral oncogenic, luminescence, dose response (AID 1934); assay type: functional; details: Homo sapiens
[7] = system: Vero; test: cells; assay type: functional, cell-based; details: Chlorocebus sabaeus
[8] = system: BJ; test: growth inhibition of engineered Ras-driven BJ cells – cell-based, alamar blue fluorescence, cherrypicked samples, dose response (AID 2631); assay type: functional; details: Homo sapiens;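 further: confirmatory dose-response assay in RAS-dependent BJ fibroblasts engineered with TERT, LT and ST, with cytotoxicity read by fluorescence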
[9] = system: Vero; test: cells; assay type: functional; details: Chlorocebus sabaeus
[10] = biological target: T1, Adenosylmethionine-8-amino-7-oxononanoate aminotransferase (Mycobacterium tuberculosis, UniProt P9WQ81); test: Mycobacterium tuberculosis BioA enzyme inhibitor Measured in Biochemical System Using Plate Reader - 2163-02_Inhibitor_Dose_CherryPick_Activity.; assay type: functional, Mycobacterium tuberculosis UT205
T1 sequence (P9WQ81 whole entry): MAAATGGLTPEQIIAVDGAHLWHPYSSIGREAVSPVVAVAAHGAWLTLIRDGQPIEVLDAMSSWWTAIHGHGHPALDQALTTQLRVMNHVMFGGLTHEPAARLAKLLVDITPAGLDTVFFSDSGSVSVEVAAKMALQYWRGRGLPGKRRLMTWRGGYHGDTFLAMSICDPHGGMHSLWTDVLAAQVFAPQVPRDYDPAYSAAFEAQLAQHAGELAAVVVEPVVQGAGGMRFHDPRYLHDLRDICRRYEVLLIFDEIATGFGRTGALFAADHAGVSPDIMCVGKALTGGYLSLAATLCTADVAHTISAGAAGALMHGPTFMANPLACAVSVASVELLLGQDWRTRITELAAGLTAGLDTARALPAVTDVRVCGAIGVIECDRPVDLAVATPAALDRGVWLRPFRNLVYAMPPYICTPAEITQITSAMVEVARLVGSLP

[11] = decrease of insulin promoter-GFP reporter – imaging, high-content screening, mouse beta cells (AID 1628); assay type: functional; details: MIN6
[12] = MIN6 cell viability loss – mouse insulinoma, cytotoxicity control, dose response (AID 2122); assay type: functional;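 further: confirmatory high-throughput counterscreen run to flag cytotoxic compounds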
[13] = Trypanosoma cruzi growth suppression in host cells – NIH3T3 host cells, beta-gal luminescence, confirmation (AID 2044); assay type: functional, cell-based;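 further: intracellular parasites grown in NIH/3T3 mouse fibroblasts as host cells; luminescent beta-galactosidase reporter signal from transgenic T. cruzi replicating inside host cells; inhibitors lower the luminescence signal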
[14] = NIH3T3 cell viability loss – ATP luminescence, mouse fibroblasts, counter-screen, dose response (AID 2010); assay type: functional, cell-based;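 further: cells exposed to compound for about 90 hours before reading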
[15] = biological target: Cytochrome P450 2C9 (Homo sapiens, UniProt P11712)
Sequence of Cytochrome P450 2C9 (P11712 whole entry): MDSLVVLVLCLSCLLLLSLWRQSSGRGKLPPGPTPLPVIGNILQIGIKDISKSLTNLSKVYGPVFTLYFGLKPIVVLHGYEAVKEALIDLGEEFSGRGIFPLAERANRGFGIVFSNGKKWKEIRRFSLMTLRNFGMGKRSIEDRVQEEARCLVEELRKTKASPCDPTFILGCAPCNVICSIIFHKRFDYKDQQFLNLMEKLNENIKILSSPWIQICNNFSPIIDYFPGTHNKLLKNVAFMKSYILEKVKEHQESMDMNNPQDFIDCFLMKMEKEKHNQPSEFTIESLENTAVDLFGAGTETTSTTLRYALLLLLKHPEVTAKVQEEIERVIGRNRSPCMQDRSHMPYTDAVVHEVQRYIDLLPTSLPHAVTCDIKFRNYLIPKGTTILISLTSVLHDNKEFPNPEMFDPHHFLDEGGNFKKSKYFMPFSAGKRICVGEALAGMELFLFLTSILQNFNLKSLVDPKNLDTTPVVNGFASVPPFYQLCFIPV

[16] = biological target: Cytochrome P450 2C19 (Homo sapiens, UniProt P33261); test: Cytochrome panel assay with activity outcomes. Panel member name: p450-cyp2c19 Compounds with AC50 equal or less than 10 uM are considered active; assay type: functional; details: read-out: AC50
Sequence of Cytochrome P450 2C19 (P33261 whole entry): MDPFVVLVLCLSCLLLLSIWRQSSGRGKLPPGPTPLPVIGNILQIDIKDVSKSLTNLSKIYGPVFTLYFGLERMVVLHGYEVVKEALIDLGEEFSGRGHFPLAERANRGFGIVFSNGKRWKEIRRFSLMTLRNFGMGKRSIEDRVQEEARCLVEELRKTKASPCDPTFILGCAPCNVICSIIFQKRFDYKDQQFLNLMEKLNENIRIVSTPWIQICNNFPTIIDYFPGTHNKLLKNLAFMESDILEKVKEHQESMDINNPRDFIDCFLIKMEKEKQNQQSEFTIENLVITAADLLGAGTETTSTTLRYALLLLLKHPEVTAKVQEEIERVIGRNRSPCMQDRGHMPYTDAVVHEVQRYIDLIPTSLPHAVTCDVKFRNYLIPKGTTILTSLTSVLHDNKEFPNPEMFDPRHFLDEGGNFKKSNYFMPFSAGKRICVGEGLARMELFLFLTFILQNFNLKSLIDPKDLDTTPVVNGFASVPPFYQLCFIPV

[17] = biological target: Cytochrome P450 3A4 (Homo sapiens, UniProt P08684);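 further: CYP3A4 tested as one member of a cytochrome P450 panel screen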
Sequence of Cytochrome P450 3A4 (P08684 whole entry): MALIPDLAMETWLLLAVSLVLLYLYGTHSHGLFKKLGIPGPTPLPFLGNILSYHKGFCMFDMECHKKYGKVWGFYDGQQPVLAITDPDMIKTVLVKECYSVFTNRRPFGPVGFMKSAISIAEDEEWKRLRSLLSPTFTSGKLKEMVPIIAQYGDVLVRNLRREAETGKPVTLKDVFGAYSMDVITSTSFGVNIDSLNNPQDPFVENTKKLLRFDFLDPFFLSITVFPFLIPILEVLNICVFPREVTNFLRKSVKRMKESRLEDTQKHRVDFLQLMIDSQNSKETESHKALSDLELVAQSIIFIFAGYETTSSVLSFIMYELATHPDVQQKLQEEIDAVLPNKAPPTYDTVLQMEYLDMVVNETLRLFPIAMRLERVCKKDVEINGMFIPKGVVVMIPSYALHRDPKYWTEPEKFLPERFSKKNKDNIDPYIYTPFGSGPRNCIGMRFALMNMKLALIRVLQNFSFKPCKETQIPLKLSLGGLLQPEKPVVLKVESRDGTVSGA

[18] = biological target: T2, Cytochrome P450 1A2 (Homo sapiens, UniProt P05177);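 further: PubChem cytochrome P450 panel assay, CYP1A2 panel member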
T2 sequence (P05177 whole entry): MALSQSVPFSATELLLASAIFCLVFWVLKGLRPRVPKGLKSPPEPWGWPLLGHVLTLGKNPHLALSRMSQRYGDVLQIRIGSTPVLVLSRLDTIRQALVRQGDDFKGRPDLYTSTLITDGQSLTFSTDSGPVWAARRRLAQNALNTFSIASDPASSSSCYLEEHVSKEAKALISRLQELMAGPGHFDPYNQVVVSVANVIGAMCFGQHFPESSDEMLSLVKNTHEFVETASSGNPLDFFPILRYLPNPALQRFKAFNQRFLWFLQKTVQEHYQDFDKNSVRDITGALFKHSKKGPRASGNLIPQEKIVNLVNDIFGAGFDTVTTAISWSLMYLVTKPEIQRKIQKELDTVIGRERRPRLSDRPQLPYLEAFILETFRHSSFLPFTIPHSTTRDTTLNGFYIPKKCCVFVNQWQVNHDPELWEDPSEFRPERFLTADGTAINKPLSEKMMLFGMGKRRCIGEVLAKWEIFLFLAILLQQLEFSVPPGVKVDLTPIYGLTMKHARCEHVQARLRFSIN

## CCc1ccc(C(=O)/C=C/c2ccc([N+](=O)[O-])o2)cc1
[1]
  EC50: 5.72 µM (inconclusive)
[2]
  EC50: > 150 µM (inconclusive)
[3]
  EC50: 2.25 µM (active)
[4]
  EC50: 1.69 µM (active)
[5]
  EC50: 4.02 µM (inconclusive)
[6]
  EC50: 5.5 µM (inconclusive)
[7]
  IC50: > 25 µM (active)
[8]
  EC50: 0.57 µM (active)
[9]
  CC50: 12.3 µM (active)

## Cc1nc2c(C(=O)N3CCN(c4ccccn4)CC3)cnn2c(C)c1Cc1cccc(Cl)c1
[10]
  AC50: 3.39 µM (active)

## Cc1cc(C)n(-c2nc(NCCC(C)C)c3c4c(sc3n2)COC(C)(C)C4)n1
[11]
  IC50: 3.09 µM (active)
[12]
  IC50: 2.26 µM (active)
[13]
  EC50: 1.64 µM (active)
[14]
  EC50: > 60 µM (not active)

## O=C(Nc1cccc2ccccc12)c1cn(-c2ccccc2)nc1-c1cccs1
[15]
  AC50: inconclusive

## CCn1c(C)nc2c1C(=O)c1ccccc1C2=O
[16]
  AC50: 20 µM (inconclusive)
[17]
  AC50: 20 µM (inconclusive)
[15]
  AC50: inconclusive

## Cc1cc(C)cc(-n2nnc(C(=O)NCc3ccccc3Cl)c2N)c1
[16]
  AC50: 3.16 µM (inconclusive)
[18]
  AC50: 1.58 µM (inconclusive)
[17]
  AC50: 15.8 µM (inconclusive)
[15]
  AC50: inconclusive

## CN1c2ccc(-c3cccc(F)c3)cc2[C@H]2[C@H](CCN2C(=O)c2ccncc2)[C@H]1CO
[10]
  AC50: 0.816 µM (active)

## O=C(c1cc(-c2ccco2)on1)N1CCOCC1
[18]
  AC50: 0.0251 µM (inconclusive)
[15]
  AC50: inconclusive
